Test results as given in ChEMBL document CHEMBL4418496, “Inhibitors of crl4 ubiquitin ligase and uses thereof” (2014).
Active and inactive are the calls of the source. No cut-off for these calls is given here. Where a SMILES comes first, the peptide text is derived from it. The star is where a group is joined. Cbz = O=C(OCc1ccccc1)*

Assays:
Cullin-4A (Mus musculus) [1] = biological target: Cullin-4A (Mus musculus) (UniProt Q3TCH7); assay: Inhibition of CUL4A in mouse MEF cells stably expressing FL FLAG-tagged DDB2 assessed as reduction in F-DDB2 degradation incubated for 2 hrs before irradiated with 10 J/m2 UV irradiation; assay type: cell-based
Cullin-1 (Homo sapiens) = Cullin-1 (Homo sapiens) (UniProt Q13616); assay: Inhibition of CUL1 in human U20S cells assessed as reduction in TNF-alpha-induced IkappaB-alpha degradation at 50 uM incubated for 2 hrs followed by TNFalpha stimulation for 15 mins by Western blotting analysis; assay type: cell-based
Cullin-4B (Homo sapiens) = Cullin-4B (Homo sapiens) (UniProt Q13620); assay: Inhibition of CUL4B in human MCF7 cells assessed as reduction in 3-methylcholanthrene-induced androgen receptor degradation at 50 uM; assay type: cell-based
Cullin-4A [2] = biological target: T1, Cullin-4A (Homo sapiens, UniProt Q13619); assay: Inhibition of GST-tagged CUL4A/Rbxl ubiquitin ligase activity (unknown origin) assessed as reduction in reconstituted DDB1 ubiquitination in presence of ubiquitin, El, E2 and DDB1 incubated for 1 hr by Western blotting analysis
Cullin-4A (Mus musculus) [3] = biological target: Cullin-4A (Mus musculus) (UniProt Q3TCH7); assay: Inhibition of CUL4A in mouse MEF cells stably expressing FL FLAG-tagged DDB2 assessed as reduction in F-DDB2 degradation incubated for 2 hrs before irradiated with 10 J/m2 UV irradiation relative to control; assay type: cell-based
Cullin-4A [4] = biological target: T1, Cullin-4A; assay: Inhibition of CUL4A in human HCT116 cells assessed as promotion of UV-damaged DNA repair by measuring enhancement of 6,4-photoproducts removal pre-incubated for 2 hrs before UV-irradiation by ELISA; assay type: cell-based
Proteasome = assay: Inhibition of proteasome in mouse MEF cells stably expressing FL FLAG-tagged DDB2 assessed as reduction in F-DDB2 degradation incubated for 2 hrs before irradiated with 10 J/m2 UV irradiation

Sequence of Cullin-1 (Homo sapiens) (Q13616 whole entry): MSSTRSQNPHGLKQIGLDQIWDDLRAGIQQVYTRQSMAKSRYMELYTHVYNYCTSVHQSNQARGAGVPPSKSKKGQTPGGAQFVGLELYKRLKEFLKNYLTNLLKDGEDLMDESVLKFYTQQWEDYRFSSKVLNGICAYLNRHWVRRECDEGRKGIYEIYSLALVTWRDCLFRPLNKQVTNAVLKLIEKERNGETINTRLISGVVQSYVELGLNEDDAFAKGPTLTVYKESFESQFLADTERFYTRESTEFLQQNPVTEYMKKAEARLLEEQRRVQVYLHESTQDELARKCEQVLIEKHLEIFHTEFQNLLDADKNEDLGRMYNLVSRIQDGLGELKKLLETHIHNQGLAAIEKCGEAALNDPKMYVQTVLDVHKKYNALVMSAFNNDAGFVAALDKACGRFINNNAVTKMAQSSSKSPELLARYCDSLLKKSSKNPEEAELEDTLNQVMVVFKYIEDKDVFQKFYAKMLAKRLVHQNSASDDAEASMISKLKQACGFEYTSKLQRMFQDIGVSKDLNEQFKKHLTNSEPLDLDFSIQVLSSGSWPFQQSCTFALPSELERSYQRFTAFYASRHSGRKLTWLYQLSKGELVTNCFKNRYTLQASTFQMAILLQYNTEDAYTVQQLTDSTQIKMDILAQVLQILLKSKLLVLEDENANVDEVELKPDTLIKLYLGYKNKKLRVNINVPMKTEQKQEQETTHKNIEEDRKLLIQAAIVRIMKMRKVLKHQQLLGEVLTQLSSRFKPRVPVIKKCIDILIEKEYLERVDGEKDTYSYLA
Sequence of Cullin-4A (Mus musculus) (Q3TCH7 whole entry): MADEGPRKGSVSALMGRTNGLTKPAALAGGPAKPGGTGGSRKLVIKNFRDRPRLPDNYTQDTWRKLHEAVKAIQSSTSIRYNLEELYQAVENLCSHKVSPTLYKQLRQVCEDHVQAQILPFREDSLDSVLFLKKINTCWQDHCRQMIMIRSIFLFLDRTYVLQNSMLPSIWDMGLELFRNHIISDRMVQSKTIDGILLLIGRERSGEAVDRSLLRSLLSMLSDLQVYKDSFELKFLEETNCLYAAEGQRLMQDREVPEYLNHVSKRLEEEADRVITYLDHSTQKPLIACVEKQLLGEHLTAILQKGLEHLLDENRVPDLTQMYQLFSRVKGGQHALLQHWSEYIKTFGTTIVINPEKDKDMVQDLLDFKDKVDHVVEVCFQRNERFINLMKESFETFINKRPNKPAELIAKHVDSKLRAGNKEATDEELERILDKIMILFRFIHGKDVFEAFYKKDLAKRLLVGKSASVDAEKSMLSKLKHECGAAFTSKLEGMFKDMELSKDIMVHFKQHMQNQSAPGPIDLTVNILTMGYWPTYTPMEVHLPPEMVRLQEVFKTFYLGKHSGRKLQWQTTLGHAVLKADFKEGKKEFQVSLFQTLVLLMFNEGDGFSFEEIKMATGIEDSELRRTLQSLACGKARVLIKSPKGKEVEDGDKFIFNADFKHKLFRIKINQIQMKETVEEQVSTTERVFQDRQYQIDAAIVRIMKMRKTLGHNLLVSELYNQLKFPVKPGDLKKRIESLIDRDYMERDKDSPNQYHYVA
Sequence of Cullin-4B (Homo sapiens) (Q13620 whole entry): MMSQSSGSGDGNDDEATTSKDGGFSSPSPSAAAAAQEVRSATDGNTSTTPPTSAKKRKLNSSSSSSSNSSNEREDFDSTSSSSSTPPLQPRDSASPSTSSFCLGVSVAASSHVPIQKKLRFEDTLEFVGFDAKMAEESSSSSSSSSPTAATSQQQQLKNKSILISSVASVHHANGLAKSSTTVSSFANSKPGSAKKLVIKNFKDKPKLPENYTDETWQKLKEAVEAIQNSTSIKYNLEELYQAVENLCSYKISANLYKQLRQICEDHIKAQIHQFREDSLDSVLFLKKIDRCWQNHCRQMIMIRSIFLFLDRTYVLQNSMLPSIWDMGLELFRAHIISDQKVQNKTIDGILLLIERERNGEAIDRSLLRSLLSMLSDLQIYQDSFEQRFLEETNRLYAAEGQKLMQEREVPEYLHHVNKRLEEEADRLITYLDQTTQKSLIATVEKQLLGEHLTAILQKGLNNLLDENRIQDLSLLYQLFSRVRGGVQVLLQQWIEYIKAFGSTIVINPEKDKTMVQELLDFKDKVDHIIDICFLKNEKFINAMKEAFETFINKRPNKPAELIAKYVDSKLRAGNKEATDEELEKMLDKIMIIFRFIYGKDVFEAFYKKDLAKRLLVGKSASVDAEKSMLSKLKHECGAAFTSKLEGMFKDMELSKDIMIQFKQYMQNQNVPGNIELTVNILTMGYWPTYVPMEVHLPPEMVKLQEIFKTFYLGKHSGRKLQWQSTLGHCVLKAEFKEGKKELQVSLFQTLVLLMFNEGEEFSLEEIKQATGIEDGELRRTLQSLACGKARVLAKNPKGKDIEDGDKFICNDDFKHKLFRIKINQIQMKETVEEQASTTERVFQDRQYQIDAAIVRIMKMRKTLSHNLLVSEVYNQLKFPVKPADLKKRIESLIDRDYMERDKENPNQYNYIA
T1 sequence (Q13619 whole entry): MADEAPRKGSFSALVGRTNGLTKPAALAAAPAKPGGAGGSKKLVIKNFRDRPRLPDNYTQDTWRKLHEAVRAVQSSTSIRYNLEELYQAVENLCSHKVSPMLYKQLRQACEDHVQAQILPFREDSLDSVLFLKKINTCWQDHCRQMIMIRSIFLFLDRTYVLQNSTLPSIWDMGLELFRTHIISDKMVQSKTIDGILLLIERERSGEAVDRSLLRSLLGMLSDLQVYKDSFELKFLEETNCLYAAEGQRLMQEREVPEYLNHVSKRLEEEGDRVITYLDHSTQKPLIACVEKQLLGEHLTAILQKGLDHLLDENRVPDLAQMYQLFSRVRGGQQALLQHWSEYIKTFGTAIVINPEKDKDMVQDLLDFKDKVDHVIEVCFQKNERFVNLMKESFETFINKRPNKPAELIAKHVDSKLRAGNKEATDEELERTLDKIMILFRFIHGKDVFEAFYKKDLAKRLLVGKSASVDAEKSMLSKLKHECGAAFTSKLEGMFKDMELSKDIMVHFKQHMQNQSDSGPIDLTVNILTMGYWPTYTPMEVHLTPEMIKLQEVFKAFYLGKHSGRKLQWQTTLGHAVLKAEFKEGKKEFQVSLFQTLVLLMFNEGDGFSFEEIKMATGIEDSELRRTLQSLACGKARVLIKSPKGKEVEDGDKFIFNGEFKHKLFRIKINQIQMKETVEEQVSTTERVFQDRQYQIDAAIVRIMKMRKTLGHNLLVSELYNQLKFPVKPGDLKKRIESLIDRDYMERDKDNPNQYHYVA

For `COc1ccc(-c2c3c([nH]c(=S)c2C#N)CCCC3)cc1`, the “inhibition (active/inactive call)” value (Cullin-4A (Mus musculus) [1]) was “Active”, the inhibition (Cullin-1 (Homo sapiens)) was “inactive” and the inhibition (Cullin-4B (Homo sapiens)) was “inactive”.

`CC1(C)Cc2c(c(N3CCNCC3)[nH]c(=S)c2C#N)CO1` was tested, and the “inhibition (active/inactive call)” value (Cullin-4A (Mus musculus) [1]) was “Active”.

In the case of `COc1nsc(I)c1C#N`, the “inhibition (active/inactive call)” value (Cullin-4A (Mus musculus) [1]) is reported as “Active” and the inhibition (Cullin-4B (Homo sapiens)) is reported as “inactive”.

For `O=[N+]([O-])c1c(Cl)ncnc1N1CCCCC1CO` (stereo not drawn), the “inhibition (active/inactive call)” value (Cullin-4A (Mus musculus) [1]) was “Active”.

For `COC(=O)Oc1c(Br)c(C)c2oc(=O)sc2c1Br`, the IC50 (Cullin-4A [2]) was under 240 nM.

With `COc1ccc(-c2nnc(S)n2-c2ccc(C)cc2)cc1` the IC50 (Cullin-4A [2]) was 2400 nM, the “inhibition (active/inactive call)” value (Cullin-4A (Mus musculus) [1]) was “Active” and the inhibition (Cullin-4B (Homo sapiens)) was “inactive”.

`N#CC1=C(N)SC(N)=C(C#N)C1c1cccs1` was tested, and the “inhibition (active/inactive call)” value (Cullin-4A (Mus musculus) [1]) was “Active”, the inhibition (Cullin-1 (Homo sapiens)) was “inactive” and the inhibition (Cullin-4B (Homo sapiens)) was “inactive”.

For `COC(=O)Oc1cc2oc(=O)sc2cc1Cl`, the “inhibition (active/inactive call)” value (Cullin-4A (Mus musculus) [1]) was “Active”.

`N#Cc1c(S)nc2c(c1-c1ccco1)CCCC2` was tested, and the “inhibition (active/inactive call)” value (Cullin-4A (Mus musculus) [1]) was “Active”, the inhibition (Cullin-4A (Mus musculus) [3]) was “Dose-dependent effect” and the inhibition (Cullin-1 (Homo sapiens)) was “inactive”. The inhibition (Cullin-4B (Homo sapiens)) was “inactive” and the inhibition (Cullin-4A [4]) was “Active”.

For `N#CC1=C(N)SC(N)=C(C#N)C1CCc1ccccc1`, the IC50 (Cullin-4A [2]) was 3680 nM.

`Sc1nnc(C2CC2)n1-c1ccc(Cl)c(Cl)c1` was tested, and the IC50 (Cullin-4A [2]) was 703000 nM, the “inhibition (active/inactive call)” value (Cullin-4A (Mus musculus) [1]) was “Active” and the inhibition (Cullin-4B (Homo sapiens)) was “inactive”.

For `CC(=O)CN1C(=O)C(=O)c2cc(Br)ccc21`, the “inhibition (active/inactive call)” value (Cullin-4A (Mus musculus) [1]) was “Active”.

`N#Cc1c(-c2ccco2)c2c([nH]c1=S)CCCC2` was tested, and the IC50 (Cullin-4A [2]) was 554 nM.

For `N#CC1=C(N)SC(N)=C(C#N)C1c1ccc(C(F)(F)F)cc1`, the IC50 (Cullin-4A [2]) was over 50000 nM.

For `Clc1ccc2nc(Cl)c3nnnn3c2c1`, the “inhibition (active/inactive call)” value (Cullin-4A (Mus musculus) [1]) was “Active”.

Compound `N#CC1=C(N)SC(N)=C(C#N)C1c1cc(Br)ccc1F` has an IC50 (Cullin-4A [2]) of 690000 nM.

For `CC(C)C[C@@H](C=O)NC(=O)[C@H](CC(C)C)NC(=O)[C@H](CC(C)C)NC(=O)OCc1ccccc1` (Cbz-Leu-Leu-Leu-aldehyde), the inhibition (Proteasome) was “Active”.

With `COc1ccc(-c2c(C#N)c(S)nc3c2CCC3)cc1` the “inhibition (active/inactive call)” value (Cullin-4A (Mus musculus) [1]) was “Active”, the inhibition (Cullin-1 (Homo sapiens)) was “inactive” and the inhibition (Cullin-4B (Homo sapiens)) was “inactive”.

In the case of `CC(C)c1nnc(S)n1-c1ccc(Cl)c(Cl)c1`, the IC50 (Cullin-4A [2]) is reported as under 240 nM, the “inhibition (active/inactive call)” value (Cullin-4A (Mus musculus) [1]) is reported as “Active” and the inhibition (Cullin-4B (Homo sapiens)) is reported as “inactive”.

In the case of `CCOC(=O)Oc1cc2oc(=O)sc2cc1Cl`, the “inhibition (active/inactive call)” value (Cullin-4A (Mus musculus) [1]) is reported as “Active”.

In the case of `COc1ccc(-c2c3c([nH]c(=S)c2C#N)CCC3)cc1`, the IC50 (Cullin-4A [2]) is reported as 997 nM.

In the case of `O=c1oc2c(Br)c(O)c(Br)cc2s1`, the “inhibition (active/inactive call)” value (Cullin-4A (Mus musculus) [1]) is reported as “Active” and the inhibition (Cullin-4B (Homo sapiens)) is reported as “inactive”.

In the case of `CNC(=O)Oc1c(Br)cc2sc(=O)oc2c1Br`, the IC50 (Cullin-4A [2]) is reported as under 240 nM.

For `CCOC(=O)Oc1c(Cl)cc2oc(=O)sc2c1Cl`, the “inhibition (active/inactive call)” value (Cullin-4A (Mus musculus) [1]) was “Active”.

In the case of `CCOC(=O)Oc1cc2oc(=O)sc2cc1Br`, the “inhibition (active/inactive call)” value (Cullin-4A (Mus musculus) [1]) is reported as “Active”.

`N#CC1=C(N)SC(N)=C(C#N)C1c1ccco1` was tested, and the “inhibition (active/inactive call)” value (Cullin-4A (Mus musculus) [1]) was “Active”, the inhibition (Cullin-1 (Homo sapiens)) was “inactive” and the inhibition (Cullin-4B (Homo sapiens)) was “inactive”.

For `N#Cc1c(-c2ccncc2)c2c([nH]c1=S)CCCC2`, the IC50 (Cullin-4A [2]) was 2680 nM.

For `COC(=O)c1sc(=S)n(-c2ccc(F)cc2F)c1N`, the “inhibition (active/inactive call)” value (Cullin-4A (Mus musculus) [1]) was “Active”.

`N#CC1=C(N)SC(N)=C(C#N)C1c1ccccc1F` was tested, and the “inhibition (active/inactive call)” value (Cullin-4A (Mus musculus) [1]) was “Active”, the inhibition (Cullin-4A (Mus musculus) [3]) was “Dose-dependent effect” and the inhibition (Cullin-1 (Homo sapiens)) was “inactive”. For the same compound, the inhibition (Cullin-4B (Homo sapiens)) was “inactive” and the inhibition (Cullin-4A [4]) was “Active”.
